These molecules were tested against Serine/threonine-protein kinase 26 (Homo sapiens) (UniProt Q9P289).
Sequence of Serine/threonine-protein kinase 26 (Homo sapiens) (Q9P289 2-416 limits assumed): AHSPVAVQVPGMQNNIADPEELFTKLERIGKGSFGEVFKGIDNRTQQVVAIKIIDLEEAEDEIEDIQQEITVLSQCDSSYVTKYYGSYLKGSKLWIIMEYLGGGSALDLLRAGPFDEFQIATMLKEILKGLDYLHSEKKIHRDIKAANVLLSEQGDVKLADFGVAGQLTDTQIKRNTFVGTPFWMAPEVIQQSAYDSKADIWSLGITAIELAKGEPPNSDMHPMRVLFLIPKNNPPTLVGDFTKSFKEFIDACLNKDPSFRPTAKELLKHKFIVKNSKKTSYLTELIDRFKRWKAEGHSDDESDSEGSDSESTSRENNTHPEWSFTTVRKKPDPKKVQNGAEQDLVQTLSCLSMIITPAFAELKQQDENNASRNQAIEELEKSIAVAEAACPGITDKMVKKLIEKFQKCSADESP

ΔTm | SMILES
-0.3 °C | CCN1/C(=C/C(C)=O)Sc2ccc(OC)cc21
0.7 °C | Cc1ccc(NC(=O)c2cccc(N(C)C)c2)cc1NC(=O)c1ccc(O)cc1
2.5 °C | O=C1NC(=O)c2c1c1c3ccccc3[nH]c1n1cncc21 [ISOGRANULATIMIDE]

The molecules below were run against Calcium/calmodulin-dependent protein kinase kinase 2 (Homo sapiens, UniProt Q96RR4).
Sequence of Calcium/calmodulin-dependent protein kinase kinase 2 (Q96RR4 2-588 limits assumed): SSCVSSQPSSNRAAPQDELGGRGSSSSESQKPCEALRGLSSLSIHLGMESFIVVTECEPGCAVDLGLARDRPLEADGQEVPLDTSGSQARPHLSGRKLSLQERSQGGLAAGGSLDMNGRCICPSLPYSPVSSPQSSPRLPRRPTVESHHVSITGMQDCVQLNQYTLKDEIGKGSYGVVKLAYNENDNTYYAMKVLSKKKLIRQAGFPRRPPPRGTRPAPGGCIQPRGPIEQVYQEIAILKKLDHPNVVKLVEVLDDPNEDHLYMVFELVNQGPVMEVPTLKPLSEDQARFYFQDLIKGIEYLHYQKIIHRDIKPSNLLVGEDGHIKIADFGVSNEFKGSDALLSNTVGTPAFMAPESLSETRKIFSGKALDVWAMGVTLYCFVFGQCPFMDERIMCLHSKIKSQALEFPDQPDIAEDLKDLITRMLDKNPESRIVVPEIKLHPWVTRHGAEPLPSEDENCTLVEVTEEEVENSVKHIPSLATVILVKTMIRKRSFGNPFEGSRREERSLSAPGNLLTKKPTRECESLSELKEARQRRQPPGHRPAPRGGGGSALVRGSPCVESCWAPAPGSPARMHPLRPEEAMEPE

ΔTm | SMILES
0.4 °C | CCN1/C(=C/C(C)=O)Sc2ccc(OC)cc21
0.4 °C | Cc1ccc(NC(=O)c2cccc(N(C)C)c2)cc1NC(=O)c1ccc(O)cc1
0.5 °C | O=C1NC(=O)c2c1c1c3ccccc3[nH]c1n1cncc21 [ISOGRANULATIMIDE]

These molecules were tested against Tyrosine-protein kinase JAK1 (Homo sapiens) (UniProt P23458).

ΔTm | SMILES
-0.4 °C | CCN1/C(=C/C(C)=O)Sc2ccc(OC)cc21
0.1 °C | Cc1ccc(NC(=O)c2cccc(N(C)C)c2)cc1NC(=O)c1ccc(O)cc1
7.5 °C | O=C1NC(=O)c2c1c1c3ccccc3[nH]c1n1cncc21 [ISOGRANULATIMIDE]

These molecules were tested against T1, Serine/threonine-protein kinase 17A (Homo sapiens) (UniProt Q9UEE5).
T1 sequence (whole entry): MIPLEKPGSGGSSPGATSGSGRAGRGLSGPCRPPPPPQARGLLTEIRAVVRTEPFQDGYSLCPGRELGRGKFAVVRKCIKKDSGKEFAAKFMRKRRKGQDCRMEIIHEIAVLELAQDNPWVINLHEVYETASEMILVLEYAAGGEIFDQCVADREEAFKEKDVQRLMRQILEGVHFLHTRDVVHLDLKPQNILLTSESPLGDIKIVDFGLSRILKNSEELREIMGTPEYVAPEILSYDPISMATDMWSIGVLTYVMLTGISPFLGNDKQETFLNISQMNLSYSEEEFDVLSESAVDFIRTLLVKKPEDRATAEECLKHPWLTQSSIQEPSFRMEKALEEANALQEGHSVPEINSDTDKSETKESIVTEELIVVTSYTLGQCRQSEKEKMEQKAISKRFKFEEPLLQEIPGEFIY

ΔTm | SMILES
0.4 °C | CCN1/C(=C/C(C)=O)Sc2ccc(OC)cc21
0.6 °C | Cc1ccc(NC(=O)c2cccc(N(C)C)c2)cc1NC(=O)c1ccc(O)cc1
1.3 °C | O=C1NC(=O)c2c1c1c3ccccc3[nH]c1n1cncc21 [ISOGRANULATIMIDE]

What follows are molecules tested against cAMP-dependent protein kinase catalytic subunit alpha (Homo sapiens) (UniProt P17612).

ΔTm | SMILES
-0.5 °C | CCN1/C(=C/C(C)=O)Sc2ccc(OC)cc21
0.9 °C | Cc1ccc(NC(=O)c2cccc(N(C)C)c2)cc1NC(=O)c1ccc(O)cc1
5.9 °C | O=C1NC(=O)c2c1c1c3ccccc3[nH]c1n1cncc21 [ISOGRANULATIMIDE]

The molecules below were run against Serine/threonine-protein kinase pim-2 (Homo sapiens, UniProt Q9P1W9).
Sequence of Serine/threonine-protein kinase pim-2 (Q9P1W9 whole entry, looked up): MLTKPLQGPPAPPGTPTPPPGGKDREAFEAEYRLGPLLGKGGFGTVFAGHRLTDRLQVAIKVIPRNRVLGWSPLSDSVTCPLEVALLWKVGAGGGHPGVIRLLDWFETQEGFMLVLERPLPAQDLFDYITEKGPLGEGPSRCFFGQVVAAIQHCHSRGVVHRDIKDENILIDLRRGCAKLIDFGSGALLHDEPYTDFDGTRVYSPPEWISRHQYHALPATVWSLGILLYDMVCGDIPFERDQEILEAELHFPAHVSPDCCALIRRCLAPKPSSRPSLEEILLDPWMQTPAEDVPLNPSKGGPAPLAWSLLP

ΔTm | SMILES
3.1 °C | CCN1/C(=C/C(C)=O)Sc2ccc(OC)cc21
0 °C | Cc1ccc(NC(=O)c2cccc(N(C)C)c2)cc1NC(=O)c1ccc(O)cc1
8 °C | O=C1NC(=O)c2c1c1c3ccccc3[nH]c1n1cncc21 [ISOGRANULATIMIDE]

What follows are molecules tested against Cyclin-dependent kinase 16 (Homo sapiens) (UniProt Q00536).
Sequence of Cyclin-dependent kinase 16 (Homo sapiens) (Q00536 whole entry): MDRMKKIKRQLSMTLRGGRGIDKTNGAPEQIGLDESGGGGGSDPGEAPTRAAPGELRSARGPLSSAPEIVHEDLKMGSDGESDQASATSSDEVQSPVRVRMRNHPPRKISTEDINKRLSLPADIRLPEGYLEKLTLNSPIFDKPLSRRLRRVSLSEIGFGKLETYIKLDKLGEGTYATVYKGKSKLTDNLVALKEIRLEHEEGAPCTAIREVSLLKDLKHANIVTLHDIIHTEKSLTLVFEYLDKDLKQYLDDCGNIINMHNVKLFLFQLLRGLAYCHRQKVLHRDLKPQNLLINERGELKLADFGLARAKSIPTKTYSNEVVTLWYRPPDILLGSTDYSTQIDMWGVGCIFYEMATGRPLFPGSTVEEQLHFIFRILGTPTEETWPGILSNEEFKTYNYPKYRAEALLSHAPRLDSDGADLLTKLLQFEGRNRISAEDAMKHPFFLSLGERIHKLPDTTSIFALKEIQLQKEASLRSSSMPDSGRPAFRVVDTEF

ΔTm | SMILES
-0.5 °C | CCN1/C(=C/C(C)=O)Sc2ccc(OC)cc21
0.3 °C | Cc1ccc(NC(=O)c2cccc(N(C)C)c2)cc1NC(=O)c1ccc(O)cc1
3.1 °C | O=C1NC(=O)c2c1c1c3ccccc3[nH]c1n1cncc21 [ISOGRANULATIMIDE]

What follows are molecules tested against Serine/threonine-protein kinase 10 (Homo sapiens) (UniProt O94804).
Sequence of Serine/threonine-protein kinase 10 (Homo sapiens) (O94804 whole entry, looked up): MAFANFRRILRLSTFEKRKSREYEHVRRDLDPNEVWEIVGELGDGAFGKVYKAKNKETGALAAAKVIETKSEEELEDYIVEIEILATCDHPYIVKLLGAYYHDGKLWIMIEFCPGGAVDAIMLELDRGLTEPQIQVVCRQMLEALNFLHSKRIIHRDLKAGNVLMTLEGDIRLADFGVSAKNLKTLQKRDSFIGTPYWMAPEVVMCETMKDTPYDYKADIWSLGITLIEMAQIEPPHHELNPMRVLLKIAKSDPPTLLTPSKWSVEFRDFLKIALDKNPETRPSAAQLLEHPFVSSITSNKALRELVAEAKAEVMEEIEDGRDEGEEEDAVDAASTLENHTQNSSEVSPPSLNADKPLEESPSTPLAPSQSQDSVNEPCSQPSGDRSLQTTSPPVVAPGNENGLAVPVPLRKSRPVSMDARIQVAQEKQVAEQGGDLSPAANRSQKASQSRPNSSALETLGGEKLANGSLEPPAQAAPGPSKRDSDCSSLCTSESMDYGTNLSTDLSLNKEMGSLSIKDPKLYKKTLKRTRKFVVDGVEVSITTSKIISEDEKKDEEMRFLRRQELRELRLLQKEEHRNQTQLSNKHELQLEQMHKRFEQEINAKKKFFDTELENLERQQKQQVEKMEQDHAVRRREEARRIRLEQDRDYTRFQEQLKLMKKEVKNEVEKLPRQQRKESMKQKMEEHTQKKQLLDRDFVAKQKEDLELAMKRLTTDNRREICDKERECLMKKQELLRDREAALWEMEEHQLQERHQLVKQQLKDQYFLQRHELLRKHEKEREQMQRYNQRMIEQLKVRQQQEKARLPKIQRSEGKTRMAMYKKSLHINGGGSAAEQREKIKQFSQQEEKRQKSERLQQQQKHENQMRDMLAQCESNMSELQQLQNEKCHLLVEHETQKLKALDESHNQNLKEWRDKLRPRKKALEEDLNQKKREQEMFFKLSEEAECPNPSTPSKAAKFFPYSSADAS

ΔTm | SMILES
0.4 °C | CCN1/C(=C/C(C)=O)Sc2ccc(OC)cc21
0.1 °C | Cc1ccc(NC(=O)c2cccc(N(C)C)c2)cc1NC(=O)c1ccc(O)cc1
5.4 °C | O=C1NC(=O)c2c1c1c3ccccc3[nH]c1n1cncc21 [ISOGRANULATIMIDE]

What follows are molecules tested against 5'-AMP-activated protein kinase catalytic subunit alpha-2 (Homo sapiens) (UniProt P54646).
Sequence of 5'-AMP-activated protein kinase catalytic subunit alpha-2 (Homo sapiens) (P54646 whole entry, looked up): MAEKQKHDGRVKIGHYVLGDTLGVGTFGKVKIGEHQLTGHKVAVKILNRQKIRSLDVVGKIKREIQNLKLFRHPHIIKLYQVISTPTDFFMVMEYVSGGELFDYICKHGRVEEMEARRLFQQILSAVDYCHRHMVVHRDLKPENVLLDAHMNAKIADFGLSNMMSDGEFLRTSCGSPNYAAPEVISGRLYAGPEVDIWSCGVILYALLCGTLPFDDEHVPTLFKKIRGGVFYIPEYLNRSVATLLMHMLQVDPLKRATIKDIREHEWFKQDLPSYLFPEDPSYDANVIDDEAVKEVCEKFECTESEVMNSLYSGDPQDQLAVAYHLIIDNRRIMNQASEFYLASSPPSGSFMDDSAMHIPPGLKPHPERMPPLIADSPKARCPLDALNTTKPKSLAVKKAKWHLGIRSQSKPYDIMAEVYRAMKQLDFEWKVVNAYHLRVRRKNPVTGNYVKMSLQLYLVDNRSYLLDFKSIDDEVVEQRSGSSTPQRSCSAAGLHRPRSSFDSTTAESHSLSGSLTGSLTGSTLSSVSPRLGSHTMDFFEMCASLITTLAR

ΔTm | SMILES
-0.1 °C | CCN1/C(=C/C(C)=O)Sc2ccc(OC)cc21
-0.1 °C | Cc1ccc(NC(=O)c2cccc(N(C)C)c2)cc1NC(=O)c1ccc(O)cc1
3.6 °C | O=C1NC(=O)c2c1c1c3ccccc3[nH]c1n1cncc21 [ISOGRANULATIMIDE]

Each molecule was assayed against Casein kinase I isoform gamma-3 (Homo sapiens) (UniProt Q9Y6M4).

ΔTm | SMILES
0.3 °C | Cc1ccc(NC(=O)c2cccc(N(C)C)c2)cc1NC(=O)c1ccc(O)cc1
3.6 °C | O=C1NC(=O)c2c1c1c3ccccc3[nH]c1n1cncc21 [ISOGRANULATIMIDE]

The molecules below were run against Serine/threonine-protein kinase PAK 6 (Homo sapiens) (UniProt Q9NQU5).
Sequence of Serine/threonine-protein kinase PAK 6 (Homo sapiens) (Q9NQU5 whole entry, looked up): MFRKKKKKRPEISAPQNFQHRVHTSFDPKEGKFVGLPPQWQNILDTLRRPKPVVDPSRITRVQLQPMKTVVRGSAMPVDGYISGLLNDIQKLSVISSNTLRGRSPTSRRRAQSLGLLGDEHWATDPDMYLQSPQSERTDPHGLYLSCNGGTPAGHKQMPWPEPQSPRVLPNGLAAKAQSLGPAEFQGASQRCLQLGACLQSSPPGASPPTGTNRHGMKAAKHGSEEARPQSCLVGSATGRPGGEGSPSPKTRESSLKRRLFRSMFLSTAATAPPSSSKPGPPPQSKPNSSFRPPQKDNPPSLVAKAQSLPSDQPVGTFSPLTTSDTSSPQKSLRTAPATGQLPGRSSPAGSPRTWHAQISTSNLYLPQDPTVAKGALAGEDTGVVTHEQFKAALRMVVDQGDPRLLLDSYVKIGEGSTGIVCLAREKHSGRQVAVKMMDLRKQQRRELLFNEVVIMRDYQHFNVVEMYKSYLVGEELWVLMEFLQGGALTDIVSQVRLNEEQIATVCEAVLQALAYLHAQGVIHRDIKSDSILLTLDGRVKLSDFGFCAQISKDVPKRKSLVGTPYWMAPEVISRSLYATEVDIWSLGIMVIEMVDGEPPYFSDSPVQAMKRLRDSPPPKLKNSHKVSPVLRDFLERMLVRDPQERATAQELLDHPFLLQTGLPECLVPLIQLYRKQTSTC

ΔTm | SMILES
-0.9 °C | CCN1/C(=C/C(C)=O)Sc2ccc(OC)cc21
0.6 °C | Cc1ccc(NC(=O)c2cccc(N(C)C)c2)cc1NC(=O)c1ccc(O)cc1
-0.5 °C | O=C1NC(=O)c2c1c1c3ccccc3[nH]c1n1cncc21 [ISOGRANULATIMIDE]

These molecules were tested against T2, Serine/threonine-protein kinase VRK3 (Homo sapiens) (UniProt Q8IV63).
T2 sequence (whole entry): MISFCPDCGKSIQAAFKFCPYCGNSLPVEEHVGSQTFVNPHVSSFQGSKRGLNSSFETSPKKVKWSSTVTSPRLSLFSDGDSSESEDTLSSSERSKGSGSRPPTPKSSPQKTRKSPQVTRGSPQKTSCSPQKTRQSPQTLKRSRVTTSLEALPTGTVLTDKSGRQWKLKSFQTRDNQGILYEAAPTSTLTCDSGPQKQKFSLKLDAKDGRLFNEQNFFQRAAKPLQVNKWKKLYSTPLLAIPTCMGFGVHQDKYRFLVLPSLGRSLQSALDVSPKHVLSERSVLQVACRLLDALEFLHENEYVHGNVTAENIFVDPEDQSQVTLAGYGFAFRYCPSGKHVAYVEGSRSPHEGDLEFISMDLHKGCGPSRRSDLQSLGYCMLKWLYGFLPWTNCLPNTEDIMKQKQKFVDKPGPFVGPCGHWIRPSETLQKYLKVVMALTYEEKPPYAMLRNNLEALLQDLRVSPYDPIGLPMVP

ΔTm | SMILES
0.1 °C | CCN1/C(=C/C(C)=O)Sc2ccc(OC)cc21
-0.1 °C | Cc1ccc(NC(=O)c2cccc(N(C)C)c2)cc1NC(=O)c1ccc(O)cc1
3.7 °C | O=C1NC(=O)c2c1c1c3ccccc3[nH]c1n1cncc21 [ISOGRANULATIMIDE]

The molecules below were run against Serine/threonine-protein kinase Nek6 (Homo sapiens) (UniProt Q9HC98).
Sequence of Serine/threonine-protein kinase Nek6 (Homo sapiens) (Q9HC98 whole entry): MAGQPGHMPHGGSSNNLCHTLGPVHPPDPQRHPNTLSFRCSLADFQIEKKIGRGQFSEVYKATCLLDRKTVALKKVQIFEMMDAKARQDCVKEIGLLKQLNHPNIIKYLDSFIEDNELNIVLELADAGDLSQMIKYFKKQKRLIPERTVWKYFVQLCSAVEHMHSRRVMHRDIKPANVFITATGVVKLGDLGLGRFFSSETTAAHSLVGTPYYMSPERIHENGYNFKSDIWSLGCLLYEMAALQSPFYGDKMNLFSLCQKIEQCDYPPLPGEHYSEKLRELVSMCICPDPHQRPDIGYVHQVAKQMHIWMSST

ΔTm | SMILES
-1 °C | CCN1/C(=C/C(C)=O)Sc2ccc(OC)cc21
0.3 °C | Cc1ccc(NC(=O)c2cccc(N(C)C)c2)cc1NC(=O)c1ccc(O)cc1
1.5 °C | O=C1NC(=O)c2c1c1c3ccccc3[nH]c1n1cncc21 [ISOGRANULATIMIDE]

Each molecule was assayed against T3, Mitogen-activated protein kinase kinase kinase 5 (Homo sapiens) (UniProt Q99683).
T3 sequence (whole entry): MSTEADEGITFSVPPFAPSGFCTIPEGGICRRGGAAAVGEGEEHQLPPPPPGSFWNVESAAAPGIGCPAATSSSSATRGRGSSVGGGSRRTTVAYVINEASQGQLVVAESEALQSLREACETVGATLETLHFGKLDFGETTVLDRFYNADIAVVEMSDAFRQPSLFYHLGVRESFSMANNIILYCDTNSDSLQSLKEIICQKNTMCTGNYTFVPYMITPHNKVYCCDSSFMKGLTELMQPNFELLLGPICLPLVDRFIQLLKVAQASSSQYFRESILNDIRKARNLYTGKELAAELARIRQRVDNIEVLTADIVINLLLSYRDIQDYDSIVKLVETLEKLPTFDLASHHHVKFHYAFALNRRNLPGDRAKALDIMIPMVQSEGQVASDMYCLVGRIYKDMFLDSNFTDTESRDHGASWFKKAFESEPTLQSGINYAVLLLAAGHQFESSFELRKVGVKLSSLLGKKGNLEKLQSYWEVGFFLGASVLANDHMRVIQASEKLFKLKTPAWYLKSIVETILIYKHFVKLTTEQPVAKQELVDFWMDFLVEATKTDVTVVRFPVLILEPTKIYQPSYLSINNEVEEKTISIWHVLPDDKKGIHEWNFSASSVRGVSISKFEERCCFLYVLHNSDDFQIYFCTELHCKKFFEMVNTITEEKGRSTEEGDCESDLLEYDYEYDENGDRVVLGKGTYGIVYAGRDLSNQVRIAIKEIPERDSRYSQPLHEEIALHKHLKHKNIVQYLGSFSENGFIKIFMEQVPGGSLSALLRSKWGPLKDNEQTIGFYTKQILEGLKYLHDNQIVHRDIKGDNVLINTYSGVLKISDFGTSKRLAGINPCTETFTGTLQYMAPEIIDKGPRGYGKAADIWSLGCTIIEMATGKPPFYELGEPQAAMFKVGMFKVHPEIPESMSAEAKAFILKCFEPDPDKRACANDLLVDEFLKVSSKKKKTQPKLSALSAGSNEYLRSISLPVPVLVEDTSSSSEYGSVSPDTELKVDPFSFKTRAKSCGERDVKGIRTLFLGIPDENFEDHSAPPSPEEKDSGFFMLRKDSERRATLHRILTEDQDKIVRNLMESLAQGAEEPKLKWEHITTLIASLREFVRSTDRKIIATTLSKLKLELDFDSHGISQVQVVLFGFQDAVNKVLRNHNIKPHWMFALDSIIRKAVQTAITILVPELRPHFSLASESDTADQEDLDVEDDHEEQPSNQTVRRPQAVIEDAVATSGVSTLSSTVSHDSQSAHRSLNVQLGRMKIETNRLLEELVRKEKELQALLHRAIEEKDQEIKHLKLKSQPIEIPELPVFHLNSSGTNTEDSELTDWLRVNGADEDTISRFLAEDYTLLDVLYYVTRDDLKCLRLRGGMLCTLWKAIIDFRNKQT

ΔTm | SMILES
0.4 °C | CCN1/C(=C/C(C)=O)Sc2ccc(OC)cc21
-0.4 °C | Cc1ccc(NC(=O)c2cccc(N(C)C)c2)cc1NC(=O)c1ccc(O)cc1
2.6 °C | O=C1NC(=O)c2c1c1c3ccccc3[nH]c1n1cncc21 [ISOGRANULATIMIDE]

These molecules were tested against Serine/threonine-protein kinase 38 (Homo sapiens) (UniProt Q15208).
Sequence of Serine/threonine-protein kinase 38 (Homo sapiens) (Q15208 2-465 limits assumed): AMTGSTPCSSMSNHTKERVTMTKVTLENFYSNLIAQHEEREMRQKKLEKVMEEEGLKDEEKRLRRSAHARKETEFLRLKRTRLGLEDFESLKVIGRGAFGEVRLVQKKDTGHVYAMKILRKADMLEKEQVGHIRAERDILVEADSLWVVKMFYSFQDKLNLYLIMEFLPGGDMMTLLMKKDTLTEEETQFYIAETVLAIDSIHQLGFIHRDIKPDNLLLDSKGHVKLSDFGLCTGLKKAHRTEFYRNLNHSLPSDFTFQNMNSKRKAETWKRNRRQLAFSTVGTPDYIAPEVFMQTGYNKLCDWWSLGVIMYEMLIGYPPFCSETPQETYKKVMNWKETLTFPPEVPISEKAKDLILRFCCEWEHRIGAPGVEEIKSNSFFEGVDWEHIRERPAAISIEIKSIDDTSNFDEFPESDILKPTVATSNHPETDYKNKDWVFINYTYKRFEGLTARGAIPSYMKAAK

ΔTm | SMILES
0.5 °C | CCN1/C(=C/C(C)=O)Sc2ccc(OC)cc21
0 °C | Cc1ccc(NC(=O)c2cccc(N(C)C)c2)cc1NC(=O)c1ccc(O)cc1
2.4 °C | O=C1NC(=O)c2c1c1c3ccccc3[nH]c1n1cncc21 [ISOGRANULATIMIDE]

Reference: ChEMBL document CHEMBL1145498, “A systematic interaction map of validated kinase inhibitors with Ser/Thr kinases” (Proc Natl Acad Sci U S A, 2007)
